Reference: article PMC9409361, “EsigGOBP1: The Key Protein Binding Alpha-Phellandrene in Endoclita signifer Larvae” (International Journal of Molecular Sciences, 2022)
Entries after “also recorded” stand apart in the source; their conditions may differ. Like-named read-outs stand apart in the source and are kept apart here.

Assays:
[1] = system: recombinant EsigGOBP1; assay: Fluorescence competition binding assay (FCBA) with 1-NPN probe; parameters: species or system Endoclita signifer; settings: for binding affinities for EsigGOBP1 (in words): FCBA, ordered by Kd values; for Ki: calculated from IC50: Ki = [IC50]/(1 + [1-NPN]/K1-NPN); for IC50: competitive binding, 1-NPN and EsigGOBP1 both at 2 μM, ligands 2–24 μM, pH 7.4
Experimental: N-phenyl-1-naphthylamine (1-NPN) was selected for use as a selectively fluorescent probe to measure the affinity of ligand binding to recombinant EsigGOBP1 [20, 42]. Twelve volatiles (Table 1) from eucalyptus trunks and humus soil under eucalyptus plantation were collected, identified and screened using the dynamic headspace adsorption method, gas chromatograph coupled to mass selective detector, gas chromatograph electroantennal detection and Y-tube olfactometer bioassay (Table S1). […] A 2 μM solution of EsigGOBP1 was prepared in 20 mM Tris-HCl buffer (pH 7.4), and the ligands were dissolved in chromatographically pure methanol as 1 mM stock solutions. […] Intensity values corresponding to maximum fluorescence emission were plotted against free ligand concentrations to determine dissociation constants. K1-NPN values were calculated by Scatchard plots to linearize curves.

[2] = system: EsigGOBP1 expression in the head of E. signifer larvae; assay: qRT-PCR expression of EsigGOBP1 in larval heads after exposure to volatiles; format: in vivo, Endoclita signifer
Experimental: The 3rd and 5th instar larvae of E. signifer were exposed to 12 GC-EAD active volatile compounds (Table S1). The exposure method followed that of Llopis-Gimenez and Hu. Thirty-three 5th instar larvae were exposed to ten compounds and only methanol (control) with three biological replicates (50 μL of each odorant diluted to 10 g/L in methanol in a 50 mL jar for 24 h). Thereafter, the total RNA from the heads of these larvae were extracted and its concentration and purity measured. The residual genomic DNA in the total RNA was removed using DNase I (Thermo Scientific, Waltham, MA, USA) then purified RNA used to synthesize cDNA following the method of Zhang. The treatments carried out on the 5th instar larvae, were the same as applied to 3rd instar larvae (n = 27) (eight compounds, one control; three biological replicates). The sequence of the gene-specific primers of EsigGOBP1 were as follow: forward primer: 5′-[…]-3′; reverse primer: 5′-[…] TCTCGT-3′ [37]. Roche LIGHT CYCLE 480II (USA) and Genious 2X SYBR Green Fast qPCR Mix (No ROX) (No. RK21205; ABclonal, Wuhan, China) were used for a PCR reaction under a three-step amplification program. Each 20 µL real-time fluorescence quantification PCR (qRT-PCR) reaction mixture contained 10 µL of Genious 2X SYBR Green Fast qPCR Mix, […] ([…]), 2 µL of sample cDNA (2.5 ng of RNA), and […] of dH2O (sterile distilled water), with the following cycling parameters: 95 °C for 180 s, followed by 40 cycles of 95 °C for 5 s, 60 °C for 30 s, and 65 °C to 95 °C in increments of 0.5 °C for 5 s to generate melting curves. The sequences of the primers of the reference gene, GADPH were forward primer 5′-[…]-3′; reverse primer 5′-[…]-3′ [60]. The measurement of the expression of EsigGOBP1 in head, thorax and abdomen of 3rd instar larvae followed the protocol of Zhang. Each qRT-PCR reaction for each volatile exposure and tissues, was performed in three biological replicates and three technical replicates in Roche LIGHT CYCLE 480II. The expression of EsigGOBP1, from exposure to o-cymene and camphene served as the control for the 3rd and 5th instar larvae, respectively, and GADPH was used to measure the relative gene expressions by the 2^−ΔΔCT method. The 2^−ΔCT method was used to measure gene expressions in the tissues of 3rd instar larvae with 0.91 amplicons efficiencies. Differences in the expression of olfactory proteins were determined using a one-sample t-test. All analyses were implemented in SPSS Statistics 18.0, and values are presented as means ± SE.

[3] = system: E. signifer larvae; settings: cited from earlier work; for influence on the behaviour of E. signifier: ref [35],[36]; for attraction in behavior choice assays: ref [33],[34]
[4] = competitive binding against 1-NPN, read-out: calculated Kd
[5] = 3rd instar larvae, 24 h exposure to volatile
[6] = 5th instar larvae, 24 h exposure to volatile

| binding affinities for EsigGOBP1 (in words) [1] | Ki [1] [µM] | Kd [1, 4] [µM] | IC50 [1] [µM] | SMILES | EsigGOBP1 expression vs control [2, 5] | further results |
| --- | --- | --- | --- | --- | --- | --- |
| – | – | – | – | c1ccc(Nc2cccc3ccccc23)cc1 [1-NPN, N-phenyl-1-naphthylamine, reference compound] | – | Kd ([1]; binding curve and Scatchard plots, 1-NPN 2–24 μM, 2 μM EsigGOBP1, read-out: dissociation constant K1-NPN): 3.38 µM |
| – | – | – | – | CC1=CCC2C(C1)C2(C)C (centres unmarked) [3-carene] | downregulated; also recorded: extremely significantly lower | – |
| – | – | – | – | CCc1ccc(C(C)=O)cc1 [4-ethylacetophenone] | downregulated; also recorded: extremely significantly lower | – |
| high binding affinities | 0.792 | 0.79 | 6.3 | CCc1ccccc1CC [Benzene, 1,2-diethyl-] | – | EsigGOBP1 expression vs control ([2]; 5th instar larvae, 24 h exposure to volatile, 1,2-diethyl-): upregulated; influence on the behaviour of E. signifier [3]: no obvious influence |
| high binding affinities | – | 0.99 | 7.87 | C=C1C2CCC(C2)C1(C)C (centres unmarked) [Camphene] | – | – |
| high binding affinities | 1.43 | 1.43 | 11.4 | C=C(C)[C@H]1CC=C(C)CC1 [D-limonene] | – | – |
| low binding affinities | 2.69 | 2.69 | 21.5 | c1ccc2ccccc2c1 [Naphthalene] | upregulated | – |
| high binding affinities | 0.889 | 0.89 | 7.08 | CC1=CC[C@H](C(C)C)C=C1 [alpha-Phellandrene] | downregulated; also recorded: extremely significantly lower | influence on the behaviour of E. signifier [3]: no obvious influence |
| high binding affinities | 1.24 | 1.24 | 9.86 | CC1=CCC2CC1C2(C)C (stereo not drawn) [alpha-Pinene] | – | – |
| – | – | – | – | CCc1ccccc1C [benzene, 1-ethyl-2-methyl-] | – | EsigGOBP1 expression vs control [2, 6]: upregulated |
| – | – | – | – | Cc1ccccc1C(C)C [o-cymene] | downregulated; also recorded: extremely significantly lower | EsigGOBP1 expression vs control [2, 6]: upregulated; attraction in behavior choice assays ([3]; 3rd instar larvae): significantly attracted |
| high binding affinities | 1.32 | 1.32 | 10.5 | C=C1CCC2CC1C2(C)C (stereo not drawn) [β-Pinene] | – | EsigGOBP1 expression vs control [2, 6]: downregulated; EsigGOBP1 expression vs control ([2]; 5th instar larvae, 24 h exposure to volatile, listed as β-pinene): extremely significantly lower; attraction in behavior choice assays ([3]; 5th instar larvae): significantly attracted |

| SMILES | binding affinities for EsigGOBP1 (in words) [1] | Ki [1] [µM] | Kd [1, 4] [µM] | IC50 [1] [µM] | EsigGOBP1 expression vs control [2, 5] | further results |
| --- | --- | --- | --- | --- | --- | --- |
| Cc1cc(C)cc(C)c1 [1,3,5-trimethyl-benzen] | low binding affinities | 4.6 | 4.6 | – | – | – |
| CC(C)(O)c1ccccc1 [2-Phenyl-2-propanol] | low binding affinities | 2.77 | 2.77 | 22 | – | – |
| C=CC(=O)OCCCC [Butyl acrylate] | high binding affinities | 0.901 | 0.9 | 7.18 | – | – |
| CC12CCC(CC1)C(C)(C)O2 [Eucalyptol] | high binding affinities | 1.27 | 1.27 | 10.1 | downregulated; also recorded: significantly lower | EsigGOBP1 expression vs control [2, 6]: downregulated; also recorded: significantly lower |
